# Columns and labels:
# [1] = molecular target: T1, Aurora kinase A (Homo sapiens) (UniProt O14965); assay: Selectivity interaction (KinaseProfiler screening (Millipore)) EUB0000601a STK6; conditions: at 3 µM
# T1 sequence (whole entry): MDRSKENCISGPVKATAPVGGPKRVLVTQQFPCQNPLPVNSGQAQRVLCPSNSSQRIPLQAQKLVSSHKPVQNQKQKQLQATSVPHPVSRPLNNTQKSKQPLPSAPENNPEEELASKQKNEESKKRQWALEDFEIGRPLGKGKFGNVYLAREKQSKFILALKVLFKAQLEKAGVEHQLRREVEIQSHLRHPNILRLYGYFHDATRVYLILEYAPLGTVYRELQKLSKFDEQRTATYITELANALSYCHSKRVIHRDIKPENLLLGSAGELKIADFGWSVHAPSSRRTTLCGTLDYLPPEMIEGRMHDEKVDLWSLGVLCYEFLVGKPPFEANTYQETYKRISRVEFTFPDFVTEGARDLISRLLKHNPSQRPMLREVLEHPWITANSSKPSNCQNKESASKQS
# [2] = molecular target: Serine/threonine-protein kinase SIK1 (Homo sapiens) (UniProt P57059); assay: Selectivity interaction (KinomeScan (DiscoverX)) EUB0000595a SIK1; conditions: at 10 µM
# Sequence of Serine/threonine-protein kinase SIK1 (Homo sapiens) (P57059 whole entry): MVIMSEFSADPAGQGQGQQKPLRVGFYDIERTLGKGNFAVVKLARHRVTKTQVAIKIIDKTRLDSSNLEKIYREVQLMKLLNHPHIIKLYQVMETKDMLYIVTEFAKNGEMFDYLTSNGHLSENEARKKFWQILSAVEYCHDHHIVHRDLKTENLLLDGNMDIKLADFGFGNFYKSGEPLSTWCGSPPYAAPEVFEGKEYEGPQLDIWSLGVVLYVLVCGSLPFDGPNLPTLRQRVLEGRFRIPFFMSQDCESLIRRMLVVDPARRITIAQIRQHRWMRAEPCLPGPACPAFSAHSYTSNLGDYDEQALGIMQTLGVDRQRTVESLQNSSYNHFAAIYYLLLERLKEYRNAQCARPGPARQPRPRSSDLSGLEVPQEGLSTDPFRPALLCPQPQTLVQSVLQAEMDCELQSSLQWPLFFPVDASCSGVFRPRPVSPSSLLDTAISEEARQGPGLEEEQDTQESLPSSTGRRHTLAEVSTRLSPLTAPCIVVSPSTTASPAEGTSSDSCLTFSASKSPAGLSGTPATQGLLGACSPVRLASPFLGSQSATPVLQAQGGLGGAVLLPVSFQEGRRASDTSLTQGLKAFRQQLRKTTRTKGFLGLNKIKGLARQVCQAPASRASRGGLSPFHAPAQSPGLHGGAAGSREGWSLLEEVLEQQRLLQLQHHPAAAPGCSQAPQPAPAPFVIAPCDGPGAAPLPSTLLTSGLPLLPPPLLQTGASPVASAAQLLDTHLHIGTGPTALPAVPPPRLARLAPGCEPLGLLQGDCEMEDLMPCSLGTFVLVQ
# [3] = molecular target: Vascular endothelial growth factor receptor 2 (Homo sapiens, UniProt P35968); assay: Selectivity interaction (Upstate Kinase Profiler service (Millipore)) EUB0000056c KDR; conditions: at 1 µM
# Sequence of Vascular endothelial growth factor receptor 2 (P35968 whole entry): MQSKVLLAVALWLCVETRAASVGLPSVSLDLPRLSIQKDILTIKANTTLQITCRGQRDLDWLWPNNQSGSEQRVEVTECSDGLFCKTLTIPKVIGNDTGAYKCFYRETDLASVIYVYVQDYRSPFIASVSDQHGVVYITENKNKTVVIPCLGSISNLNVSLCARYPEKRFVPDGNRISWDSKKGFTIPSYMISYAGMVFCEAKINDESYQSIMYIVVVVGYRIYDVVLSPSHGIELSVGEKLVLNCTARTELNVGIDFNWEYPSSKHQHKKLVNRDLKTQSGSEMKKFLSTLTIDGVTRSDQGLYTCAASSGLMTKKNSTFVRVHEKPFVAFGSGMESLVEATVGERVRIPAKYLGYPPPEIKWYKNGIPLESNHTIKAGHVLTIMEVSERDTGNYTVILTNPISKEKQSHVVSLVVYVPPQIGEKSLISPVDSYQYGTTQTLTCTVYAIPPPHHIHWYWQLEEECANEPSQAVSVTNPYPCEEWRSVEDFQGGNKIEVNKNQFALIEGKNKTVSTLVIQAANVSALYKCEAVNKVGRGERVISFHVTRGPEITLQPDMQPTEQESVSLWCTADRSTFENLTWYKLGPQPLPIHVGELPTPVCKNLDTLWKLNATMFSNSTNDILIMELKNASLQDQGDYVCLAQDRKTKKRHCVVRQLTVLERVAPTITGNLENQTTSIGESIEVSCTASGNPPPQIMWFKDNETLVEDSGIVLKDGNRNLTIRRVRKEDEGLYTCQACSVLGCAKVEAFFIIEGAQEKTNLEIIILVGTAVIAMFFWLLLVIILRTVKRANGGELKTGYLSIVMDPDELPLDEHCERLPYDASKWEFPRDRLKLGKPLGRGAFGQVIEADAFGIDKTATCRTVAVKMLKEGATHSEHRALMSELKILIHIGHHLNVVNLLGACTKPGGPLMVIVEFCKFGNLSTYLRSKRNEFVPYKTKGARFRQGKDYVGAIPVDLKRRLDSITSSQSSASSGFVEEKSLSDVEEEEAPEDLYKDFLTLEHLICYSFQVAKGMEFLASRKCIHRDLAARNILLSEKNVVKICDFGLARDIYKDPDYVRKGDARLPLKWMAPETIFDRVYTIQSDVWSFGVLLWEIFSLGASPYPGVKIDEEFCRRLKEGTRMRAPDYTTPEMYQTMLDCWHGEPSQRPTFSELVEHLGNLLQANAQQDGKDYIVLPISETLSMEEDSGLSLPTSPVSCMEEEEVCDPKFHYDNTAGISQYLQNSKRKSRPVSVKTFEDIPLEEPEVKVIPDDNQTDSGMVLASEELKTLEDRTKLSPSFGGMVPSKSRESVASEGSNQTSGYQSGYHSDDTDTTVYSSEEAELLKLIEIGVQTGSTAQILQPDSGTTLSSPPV
# [4] = molecular target: T2, Mitogen-activated protein kinase kinase kinase 15 (Homo sapiens) (UniProt Q6ZN16); assay: Selectivity interaction (Kinase panel (KiNativ target engagement assay in Jurkat cells)) EUB0001635a MAP3K15; type: cell-based; conditions: at 1 µM
# T2 sequence (whole entry): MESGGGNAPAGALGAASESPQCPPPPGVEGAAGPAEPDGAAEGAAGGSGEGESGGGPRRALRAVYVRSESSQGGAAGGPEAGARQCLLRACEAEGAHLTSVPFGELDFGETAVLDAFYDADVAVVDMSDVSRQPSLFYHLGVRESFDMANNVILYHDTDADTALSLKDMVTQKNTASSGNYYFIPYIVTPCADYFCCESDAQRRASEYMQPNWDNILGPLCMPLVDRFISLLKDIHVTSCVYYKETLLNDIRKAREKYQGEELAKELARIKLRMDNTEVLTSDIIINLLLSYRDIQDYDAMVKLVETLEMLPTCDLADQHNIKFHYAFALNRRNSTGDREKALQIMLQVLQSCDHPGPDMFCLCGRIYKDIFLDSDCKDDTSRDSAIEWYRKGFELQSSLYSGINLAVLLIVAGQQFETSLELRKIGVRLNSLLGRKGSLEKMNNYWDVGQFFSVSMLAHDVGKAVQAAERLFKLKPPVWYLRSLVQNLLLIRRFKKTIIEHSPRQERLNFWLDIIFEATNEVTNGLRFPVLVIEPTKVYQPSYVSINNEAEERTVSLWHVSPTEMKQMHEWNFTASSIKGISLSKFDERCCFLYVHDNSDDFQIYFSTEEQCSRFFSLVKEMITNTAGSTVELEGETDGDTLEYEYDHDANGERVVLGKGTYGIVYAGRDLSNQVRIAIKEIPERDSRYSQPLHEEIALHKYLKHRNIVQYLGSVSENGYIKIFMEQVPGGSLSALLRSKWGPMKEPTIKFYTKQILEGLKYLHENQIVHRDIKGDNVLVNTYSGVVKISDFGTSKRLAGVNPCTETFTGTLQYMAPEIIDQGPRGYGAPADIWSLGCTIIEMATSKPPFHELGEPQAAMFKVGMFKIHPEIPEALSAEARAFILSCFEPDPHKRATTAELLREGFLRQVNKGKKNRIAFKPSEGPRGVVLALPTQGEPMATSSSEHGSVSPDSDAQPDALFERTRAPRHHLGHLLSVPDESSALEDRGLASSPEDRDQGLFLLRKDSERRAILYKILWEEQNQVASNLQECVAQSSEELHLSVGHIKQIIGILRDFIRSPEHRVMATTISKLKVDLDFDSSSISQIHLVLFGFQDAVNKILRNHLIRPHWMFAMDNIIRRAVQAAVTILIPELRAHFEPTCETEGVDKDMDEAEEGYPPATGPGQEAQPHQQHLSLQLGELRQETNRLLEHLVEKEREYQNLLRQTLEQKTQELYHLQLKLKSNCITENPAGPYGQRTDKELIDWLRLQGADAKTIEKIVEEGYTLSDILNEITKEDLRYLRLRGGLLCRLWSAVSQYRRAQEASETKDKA
# [5] = molecular target: Tyrosine-protein kinase JAK1 (Homo sapiens, UniProt P23458); assay: Selectivity interaction (ActivX KiNativ screen (kinase selectivity in THP-1 cell lysates)) EUB0000639a JAK1; type: subcellular; conditions: lysate, at 5 µM
# Sequence of Tyrosine-protein kinase JAK1 (P23458 whole entry): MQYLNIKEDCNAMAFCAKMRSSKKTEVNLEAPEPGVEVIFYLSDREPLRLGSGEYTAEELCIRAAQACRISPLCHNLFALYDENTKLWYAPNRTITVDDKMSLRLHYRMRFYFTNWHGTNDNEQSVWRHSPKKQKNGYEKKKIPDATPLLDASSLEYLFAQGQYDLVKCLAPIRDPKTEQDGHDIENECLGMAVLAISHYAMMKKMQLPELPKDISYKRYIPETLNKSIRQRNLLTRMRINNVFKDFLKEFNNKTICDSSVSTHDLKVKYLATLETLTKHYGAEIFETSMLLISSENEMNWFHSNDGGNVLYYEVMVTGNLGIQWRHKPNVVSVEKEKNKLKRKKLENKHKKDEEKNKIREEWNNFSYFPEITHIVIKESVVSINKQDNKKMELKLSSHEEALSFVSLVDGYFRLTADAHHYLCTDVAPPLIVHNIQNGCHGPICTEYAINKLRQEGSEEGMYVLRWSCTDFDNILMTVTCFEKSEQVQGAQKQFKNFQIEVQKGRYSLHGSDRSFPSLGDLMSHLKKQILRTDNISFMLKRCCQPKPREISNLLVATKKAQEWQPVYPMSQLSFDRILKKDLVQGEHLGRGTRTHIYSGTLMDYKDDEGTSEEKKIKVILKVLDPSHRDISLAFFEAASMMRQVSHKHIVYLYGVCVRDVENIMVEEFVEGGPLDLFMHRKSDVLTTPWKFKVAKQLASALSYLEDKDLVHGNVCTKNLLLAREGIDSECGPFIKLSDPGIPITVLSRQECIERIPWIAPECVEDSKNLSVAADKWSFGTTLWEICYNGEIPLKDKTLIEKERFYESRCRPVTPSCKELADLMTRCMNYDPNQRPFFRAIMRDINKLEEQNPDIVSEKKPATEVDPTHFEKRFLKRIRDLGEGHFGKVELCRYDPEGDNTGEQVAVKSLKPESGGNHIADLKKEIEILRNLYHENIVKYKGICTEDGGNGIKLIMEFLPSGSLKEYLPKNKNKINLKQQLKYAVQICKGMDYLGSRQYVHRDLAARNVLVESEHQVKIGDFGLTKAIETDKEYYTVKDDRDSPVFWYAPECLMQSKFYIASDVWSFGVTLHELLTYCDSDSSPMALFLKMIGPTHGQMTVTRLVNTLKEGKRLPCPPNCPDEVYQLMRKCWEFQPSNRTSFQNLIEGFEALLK
# [6] = molecular target: Serine/threonine-protein kinase MRCK alpha (Homo sapiens) (UniProt Q5VT25); assay: Selectivity interaction (KinomeScan (DiscoverX)) EUB0000229b CDC42BPA; conditions: at 10 µM
# [7] = molecular target: Tyrosine-protein kinase CSK (Homo sapiens) (UniProt P41240); assay: Selectivity interaction (KinomeScan (DiscoverX)) EUB0000092b CSK; conditions: at 10 µM
# Sequence of Tyrosine-protein kinase CSK (Homo sapiens) (P41240 2-450 limits assumed): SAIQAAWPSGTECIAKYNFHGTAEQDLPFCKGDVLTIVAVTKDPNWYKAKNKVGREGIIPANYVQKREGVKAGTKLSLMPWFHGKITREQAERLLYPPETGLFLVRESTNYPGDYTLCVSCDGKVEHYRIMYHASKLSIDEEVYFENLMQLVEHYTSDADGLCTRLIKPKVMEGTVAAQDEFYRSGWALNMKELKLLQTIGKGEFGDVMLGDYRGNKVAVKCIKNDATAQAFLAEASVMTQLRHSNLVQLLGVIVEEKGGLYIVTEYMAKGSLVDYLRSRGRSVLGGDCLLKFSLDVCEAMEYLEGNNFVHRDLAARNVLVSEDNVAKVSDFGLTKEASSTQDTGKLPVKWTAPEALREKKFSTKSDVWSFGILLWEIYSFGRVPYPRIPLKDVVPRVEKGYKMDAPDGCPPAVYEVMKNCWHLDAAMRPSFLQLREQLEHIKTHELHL
structure (smiles),measurement,setting,value
CCc1cc(Nc2nccc(-c3c(-c4ccc(OC)c(C(=O)Nc5c(F)cccc5F)c4)nc4ccccn34)n2)c(OC)cc1N1CCC(N2CCN(S(C)(=O)=O)CC2)CC1,% of inhibition,[1],76%
COCC(=O)NC/C=C/c1ccc2ncnc(Nc3ccc(Oc4ccc(C)nc4)c(C)c3)c2c1 [CP-724714],% of control,[2],100%
Cc1ccc(-c2ccc3c(ccc4sc5c(c43)NC[C@@H](C)NC5=O)n2)cn1,% of inhibition,[3],21%
C=CC(=O)Nc1ccc(C(=O)Nc2[nH]nc3c2CN(C(=O)N[C@H](CN(C)C)c2ccccc2)C3(C)C)cc1,% of engagement,[4],4.9%
CC[C@@H]1[C@H](F)C(=O)N[C@@H]1COc1nccc2cc(C(N)=O)c(OC)cc12 [ZIMLOVISERTIB],% of inhibition,[5],-5.3%
COc1cc(N(C)c2ccnc3ccc(C(F)(F)F)cc23)cc(OC)c1OC,% binding,[6],100%
CCC(=O)N1CCN(c2ccc(-n3c(=O)ccc4cnc5ccc(-c6cnc7ccccc7c6)cc5c43)cc2C(F)(F)F)CC1,% of control,[7],71%

# Reference: ChEMBL document CHEMBL5465560, “Selectivity Literature for EUbOPEN Chemogenomic Library” (2024)
